Experiments:
[1] = Karl Fischer moisture content measurement (volumetric titration method); type: physicochemical; settings: atmosphere of 25° C., as obtained
Protocol: The moisture content rates of the hydrate crystals obtained in Production Examples 1 and 2, and the anhydrous crystals used as a raw material in Production Example 1 were measured with a Karl Fischer moisture meter (CA-310, manufactured by Nittoseiko Analytech Co., Ltd.). The test was conducted in conformance with the description in The Japanese Pharmacopoeia, 18th Edition, “2.48 Water Determination (Karl Fischer Method)”, Volumetric titration. The measurement was performed in an atmosphere of 25° C., with the conditions set to a forced delay time of 2 minutes after sample administration, a minimum amount to be titrated of 2 μL, and an end point voltage of 140 mV. More specifically, it was as follows. First, into a measuring flask, methanol for moisture measurement (Aquamicron Dehydrated Solvent GEX, manufactured by Mitsubishi Chemical Corporation) was loaded, and 30 mg of water was added thereto to titrate the mixture with a Karl Fischer reagent (Aquamicron SS-Z, manufactured by Mitsubishi Chemical Corporation). After titration, a titer (mg/mL) of the reagent was determined from the amount titrated. Next, about 0.1 g of a measurement sample was precisely weighed and added into the measuring flask to titrate the mixture with a Karl Fischer reagent. The moisture content (w/w %) in the sample was calculated from the amount titrated and the previously determined titer.

[2] = Moisture absorption test; type: physicochemical
Protocol: An anhydrous crystal sample was placed in a container (glass weighing bottle or paper bag) in such a manner that it was in direct contact with the damp. […] In addition, a sample for the hydrate crystal (Production Example 1) was also preserved at 60° C./80% RH, and the change in moisture content was observed through the change in weight or Karl Fischer moisture measurement.

[3] = 40° C./75% RH, weighing bottle, 14 days
[4] = 40° C./75% RH, weighing bottle, 28 days
[5] = 40° C./75% RH, weighing bottle, 28 days, listed as Anhydrate crystal

**Q.** For `Cc1ccc(-c2nc(C#N)[nH]c2Cl)cc1Cl` [Anhydrous crystal, 5-chloro-4-(3-chloro-4-methylphenyl)-1H-imidazole-2-carbonitrile], which “Karl Fischer moisture content” value [1] is on record?
**A.** 0.1 wt %

**Q.** And the Moisture content ([2]; 25° C./80% RH, paper bag, 0 days)?
**A.** 0.1%

**Q.** And the Weight change ([2]; 25° C./80% RH, paper bag, 14 days)?
**A.** 0.6%

**Q.** What about the Weight change ([2]; 25° C./80% RH, paper bag, 28 days) of the same compound?
**A.** 2.2%

**Q.** And the Weight change ([2]; 25° C./80% RH, paper bag, 35 days)?
**A.** 3.3%

**Q.** What about the Weight change ([2]; 25° C./80% RH, paper bag, 43 days) of the same compound?
**A.** 4.2%

**Q.** What about the Weight change ([2]; 25° C./80% RH, paper bag, 49 days) of the same compound?
**A.** 4.7%

**Q.** What about the Weight change ([2]; 25° C./80% RH, paper bag, 49 days, listed as Anhydrate crystal) of the same compound?
**A.** 4.7%

**Q.** What about the Moisture content ([2]; 40° C./75% RH, weighing bottle, 0 days) of the same compound?
**A.** 0.1%

**Q.** And the Weight change ([2]; 40° C./75% RH, weighing bottle, 7 days)?
**A.** 3.5%

**Q.** What about the Moisture content [2, 3] of the same compound?
**A.** 5.7%

**Q.** And the Weight change [2, 3]?
**A.** 5.0%

**Q.** And the Weight change ([2]; 40° C./75% RH, weighing bottle, 21 days)?
**A.** 6.4%

**Q.** What about the Moisture content [2, 4] of the same compound?
**A.** 6.1%

**Q.** What about the Weight change [2, 4] of the same compound?
**A.** 6.7%

**Q.** And the Moisture content [2, 5]?
**A.** 6.1%

**Q.** And the Weight change [2, 5]?
**A.** 6.7%

Source: patent US20250026725A1, “HYDRATE CRYSTAL OF 5-CHLORO-4-(3-CHLORO-4- METHYLPHENYL)-1H-IMIDAZOLE-2-CARBONITRILE” (ISHIHARA SANGYO KAISHA, LTD., priority 2021, published 2025)
